Article PMC8699189 (Biomolecules, 2021)
pKd: −log10 of the molar value.

Target: T1, MavL(42-435) (Legionella pneumophila, UniProt Q5ZSJ1)
T1 construct: gene lpg2526
Conditions: 15 mM Tris-HCl pH 8.0, 50 mM NaCl, 20 °C; 300 µM ligand into 30 µM protein

T1 sequence (Q5ZSJ1 42-435 limits assumed): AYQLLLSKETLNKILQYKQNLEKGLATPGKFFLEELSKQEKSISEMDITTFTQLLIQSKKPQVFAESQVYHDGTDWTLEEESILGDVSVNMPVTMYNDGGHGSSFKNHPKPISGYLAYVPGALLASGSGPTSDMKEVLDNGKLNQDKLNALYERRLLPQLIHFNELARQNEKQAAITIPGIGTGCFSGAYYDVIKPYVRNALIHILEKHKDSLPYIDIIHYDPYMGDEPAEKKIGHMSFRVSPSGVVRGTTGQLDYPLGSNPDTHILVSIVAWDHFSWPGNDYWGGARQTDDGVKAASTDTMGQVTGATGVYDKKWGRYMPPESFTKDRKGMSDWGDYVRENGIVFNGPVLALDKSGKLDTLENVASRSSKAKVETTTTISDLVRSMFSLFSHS

Structure (SMILES): Nc1ncnc2c1ncn2[C@@H]1O[C@H](COP(=O)(O)OP(=O)(O)OC[C@H]2OC(O)[C@H](O)[C@@H]2O)[C@@H](O)[C@H]1O (stereo partly shown) [ADP-ribose]
- pKd: 4.89
